Test results from patent US20180140694A1, “DOSAGE REGIMEN FOR HIV VACCINE” (priority 2015, published 2018).

How the values were obtained:
[1] = system: latent HIV-1 reservoir in CD4+ T cells; experiment: Total HIV-1 DNA per 10^6 CD4+ T cells by droplet digital PCR (REDUC); assay type: in vivo; conditions: REDUC Part A, romidepsin infusions without preceding vaccination
From the text: Total HIV-1 DNA (copies per 10^6 CD4+ T cells): Total HIV DNA quantifies integrated and non-integrated DNA as well as latent and defective virus. There is a strong correlation between total HIV DNA and integrated HIV DNA in patients on cART and therefore cell-associated HIV DNA is likely to be a good surrogate marker of the total number of latently infected cells [Koelsch 2008].
For HIV-1 DNA quantifications, CD4 T cells were isolated using a CD4+ T Cell Isolation Kit Miltenyi biotec, cat no 130-096-533) on LS columns (Miltenyi biotec, cat no 130-042-401). After CD4 T isolation, cells were resuspended in lysis buffer and digested as previously described [Chomont, 2009 Nat Med, 15(8): 893-900]. Cell lysates were used directly for HIV-1 DNA quantifications using the QX100™ Droplet Digital™ PCR system (Bio-Rad) to determine the absolute levels of total HIV-1 DNA per 106 CD4+ T cells [Strain et al 2013 PLOS One].

Plasma HIV-1 RNA [2] = experiment: Plasma HIV-1 RNA by transcription mediated amplification (NAT screen, PROCLEIX ULTRIO Plus); assay type: in vivo; conditions: REDUC Part A
Protocol: Plasma HIV-1 RNA detection by NAT screen: Measured by a transcription mediated amplification (TMA)-based methodology, usually referred to as a nucleic acid test (NAT)-screen (PROCLEIX ULTRIO Plus, Genprobe).
Plasma HIV RNA, quantitative viral load, was measured by Cobas® TaqMan® HIV-1 Test, v2.0 (Roche) according the manufacturer's instruction (routine clinical assay). The lower limit of quantification for this assay is 20 copies HIV-1 RNA/mL, but it provides a qualitative assessment below this. Plasma HIV-1 RNA was also measured by a transcription mediated amplification (TMA)-based methodology, usually referred to as a nucleic acid test (NAT)-screen (PROCLEIX ULTRIO Plus, Genprobe), according to manufacturer's instructions.

[3] = system: Histone H3 acetylation in lymphocytes; experiment: Histone H3 acetylation in lymphocytes by flow cytometry (REDUC); assay type: in vivo, human; conditions: REDUC Part A, following each romidepsin administration, 5 mg/m^2
Protocol: Histone H3 acetylation: Measured in lymphocytes using flow cytometry with intracellular cytokine stain on fresh isolated PBMCs.
Histone H3 acetylation was measured in lymphocytes using flow cytometry with intracellular cytokine staining on fresh isolated PBMCs. Freshly isolated PBMC's were fixated, permeabilised and stained with acetylation-specific antibodies, providing the possibility to evaluate epigenetic modifications on Histones (Rigby L, Muscat A, Ashley D, Algar E. Epigenetics 2012; 7(8):875-882). Briefly, PBMCs (1×10^6) were resuspended in 3 ml ice-cold PBS/1% FBS and centrifuged, then vortexed to dissolve pellet and fixative added, 100 μl 2% PFA (ice-cold), vortexed briefly and incubated on ice for 15 min. Cells were then washed in 4 ml PBS, resuspended in 200 μl PBS and stored at 4° C. until staining. Samples were washed with 3 ml FACS buffer and vortexed to dissolve cell pellet prior to adding 100 μl 0.2% Triton X-100, vortexed briefly and incubated for 10 min. at room temperature (RT). Samples were then washed with FACS buffer, 600 μl Block (PBS/10% FBS) was added, sample vortexed to resuspend cell pellet and incubated for 20 min at RT. […] Finally, samples were washed with FACS buffer and resuspended in 80 μl PBS and analyzed by FACS (50 000 events, anti-acetyl histone H3 Median Fluorescence Intensity, MFI, calculated by subtracting background MFI from isotype control).

[4] = Safety and tolerability evaluation in REDUC trial (adverse events); assay type: in vivo, human
From the text: The primary endpoint of Part A was safety and tolerability; evaluation as measured by adverse events (AE), adverse reactions (AR), serious adverse events (SAE), serious adverse reactions (SAR), serious unexpected adverse reactions (SUSAR).
The primary endpoint of Part B was firstly, safety and tolerability evaluation as measured by adverse events (AE), adverse reactions (AR), serious adverse events (SAE), serious adverse reactions (SAR), serious unexpected adverse reactions (SUSAR) and dose-limiting toxicity.

[5] = system: HIV-1 transcription in CD4+ T cells; experiment: Cell associated unspliced HIV-1 RNA in CD4+ T cells by droplet digital PCR (REDUC); assay type: in vivo; conditions: REDUC Part A
Protocol: Unspliced HIV-1 RNA (copies per 10^6 CD4+ T cells): HIV transcription was measured as copies of cell-associated unspliced HIV-1 RNA/106 CD4+ T cells using digital droplet PCR.
HIV transcription was measured as copies of cell-associated unspliced HIV-1 RNA/106 CD4+ T cells using digital droplet PCR. CD4+ T-cells were isolated from PBMCs using Miltenyi Biotec negative bead separation kit (CD4 T cell isolation, #130-096-533) as described with LD separation columns, lysed (Lysis buffer from Qiagen DNA/RNA extraction kit), and stored ad −80° C. until extraction of RNA and DNA (Allprep isolation kit, Qiagen). Reverse transcription, amplification and quantitation of cell-associated unspliced HIV RNA from HIV patients was performed as follows. In summary, HIV unspliced RNA was detected on the BioRad QX100 droplet digital platform using a defined primer/probe set and related to total cell input by quantitation of the IPO8 (Importin 8) and TBP (Tata Binding Protein) gene transcription. […] After cycling droplets were subsequently read automatically by the QX100 droplet reader (BioRad) and the data was analyzed with the QuantaSoft™ analysis software (BioRad). On average, the six HIV replicates generated 80,000-98,000 droplets to be analyzed per time point.

Plasma HIV-1 RNA [6] = conditions: REDUC Part A
Protocol: Plasma HIV RNA, quantitative viral load: Measured by Roche VL (routine clinical assay).
Plasma HIV RNA, quantitative viral load, was measured by Cobas® TaqMan® HIV-1 Test, v2.0 (Roche) according the manufacturer's instruction (routine clinical assay). The lower limit of quantification for this assay is 20 copies HIV-1 RNA/mL, but it provides a qualitative assessment below this.

[7] = REDUC Part A, romidepsin 5 mg/m^2, 6 patients

SMILES: C/C=C1\NC(=O)[C@H]2CSSCC/C=C/[C@H](CC(=O)N[C@H](C(C)C)C(=O)N2)OC(=O)[C@H](C(C)C)NC1=O [romidepsin, (1S,4S,7Z,10S,16E,21R)-7-ethylidene-4,21-bis(1-methylethyl)-2-oxa-12,13-dithia-5,8,20,23-tetraazabicyclo[8.7.6] tricos-16-ene-3,6,9,19,22-pentone]
- size of the latent reservoir [1]: not affected
- Plasma HIV-1 RNA detection by transcription-mediated amplification assay, post-infusion versus baseline (Plasma HIV-1 RNA [2]): detected more frequently
- Lymphocyte histone H3 acetylation, maximum fold range relative to baseline [3]: 3.7-7.7 fold
- adverse event grade [4, 7]: most adverse events (AEs) were of grade 1
- serious adverse events [4, 7]: No serious adverse events were observed
- adverse events considered related to the agent ([4]; REDUC Part B, of 141 in total): 57 adverse events
- cell-associated un-spliced HIV RNA as a result of romidepsin infusion [5]: significantly increased
- cell-associated un-spliced HIV-1 RNA, fold range from baseline ([5]; after third infusion): 2.4-5.0 fold
- extracellular HIV RNA as a result of romidepsin infusion (Plasma HIV-1 RNA [6]): significantly increased
- patients with plasma HIV-1 RNA increased to readily quantifiable levels (Plasma HIV-1 RNA [6]; multiple post-infusion time-points): 5 of 6 patients
- plasma HIV-1 RNA (Plasma HIV-1 RNA [6]; range following the second infusion, <20 copies/mL at baseline): 46-103 copies/mL
